What was measured:
Type in all cases: in vivo
[1] = system: bermudagrass (Cynodon dactylon); assay: Test C pre/postemergence
In short: (§1)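 Greenhouse pot test: seeds treated preemergence, or plants at 2–18 cm (1- to 4-leaf stage) treated postemergence, with compound in non-phytotoxic solvent plus surfactant. Visual rating versus untreated controls after 12–14 days, scale 0 (no effect) to 100 (complete control); dash means not tested.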

[2] = system: common ragweed (Ambrosia elatior); assay: Test C pre/postemergence; settings: for Ragweed plant response rating: scale 0 to 100 (0 no effect, 100 complete control)
In short: as §1

[3] = system: eastern black nightshade (Solanum ptycanthum); assay: Test C pre/postemergence; settings: Preemergence
In short: as §1

[4] = system: barnyardgrass (Echinochloa crus-galli); assay: Test C flooded paddy test; settings: Flood
In short: (§2)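 Response scores reflect visual evaluation after 12 to 14 days in the greenhouse, with 0 for no effect and 100 for complete control relative to untreated plants. Treatment was made at the 2-leaf stage in a flooded paddy setting, and a dash denotes no test result.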

[5] = system: duck salad (Heteranthera limosa); assay: Test C flooded paddy test; settings: Flood, scale 0 to 100
In short: as §2

[6] = system: rice (Oryza sativa); assay: Test C flooded paddy test; settings: Flood, scale 0 to 100
In short: as §2

[7] = system: umbrella sedge (Cyperus difformis); assay: Test C flooded paddy test; settings: Flood, scale 0 to 100
In short: as §2

[8] = Postemergence, 250 g ai/ha, scale 0 to 100
[9] = Preemergence, 31 g ai/ha, scale 0 to 100, 0 no effect, 100 complete control
[10] = Preemergence, 62 g ai/ha, scale 0 to 100, 0 no effect, 100 complete control
[11] = Preemergence, 125 g ai/ha, scale 0 to 100
[12] = Preemergence, 250 g ai/ha, scale 0 to 100

## CC(C)COC(=O)c1nc(C2CC2)nc(N)c1Br [Compound 17]
[1]; Postemergence, 31 g ai/ha
  Plant response rating (scale of 0 to 100), Bermudagrass: 0
[1]; Postemergence, 62 g ai/ha, scale 0 to 100 (0 no effect, 100 complete control)
  Bermudagrass plant response rating: 0
[1]; [8]
  Plant response rating, Bermudagrass: 0
[1]; Postemergence, 125 g ai/ha, scale 0 to 100
  Plant response rating, Bermudagrass: 0
[1]; [9]
  Plant response rating, Bermudagrass: 0
[1]; [10]
  Plant response rating, Bermudagrass: 0
[1]; [11]
  Plant response rating, Bermudagrass: 0
[1]; [12]
  Plant response rating, Bermudagrass: 0
[2]; Postemergence, 31 g ai/ha
  Plant response rating (scale of 0 to 100), Ragweed: 65
[2]; Postemergence, 62 g ai/ha
  Ragweed plant response rating: 85
[2]; Postemergence, 125 g ai/ha
  Ragweed plant response rating: 95
[2]; [8]
  Plant response rating, Ragweed: 95
[2]; [9]
  Plant response rating, Ragweed: 70
[2]; [10]
  Plant response rating, Ragweed: 80
[2]; [11]
  Plant response rating, Ragweed: 95
[2]; [12]
  Plant response rating, Ragweed: 100
[3]; 62 g ai/ha, scale 0 to 100, 0 no effect, 100 complete control
  Plant response rating, Nightshade: 80
[3]; 125 g ai/ha, scale 0 to 100
  Plant response rating, Nightshade: 95
[3]; 250 g ai/ha, scale 0 to 100
  Plant response rating, Nightshade: 100
[4]; 62 g ai/ha, scale 0 to 100
  Plant response rating, Barnyardgrass: 0
[4]; 125 g ai/ha, scale 0 to 100
  Plant response rating, Barnyardgrass: 0
[4]; 250 g ai/ha, scale 0 to 100
  Plant response rating, Barnyardgrass: 0
[4]; 500 g ai/ha, scale 0 to 100 (0 no effect, 100 complete control)
  Plant response rating, Barnyardgrass: 50
[5]; 62 g ai/ha
  Plant response rating, Ducksalad: 0
[5]; 125 g ai/ha
  Plant response rating, Ducksalad: 0
[5]; 250 g ai/ha
  Plant response rating, Ducksalad: 80
[5]; 500 g ai/ha
  Plant response rating, Ducksalad: 80
[6]; 62 g ai/ha
  Plant response rating, Rice: 0
[6]; 125 g ai/ha
  Plant response rating, Rice: 0
[6]; 250 g ai/ha
  Plant response rating, Rice: 45
[6]; 500 g ai/ha
  Plant response rating, Rice: 75
[7]; 62 g ai/ha
  Plant response rating, Sedge, Umbrella: 0
[7]; 125 g ai/ha
  Plant response rating, Sedge, Umbrella: 0
[7]; 250 g ai/ha
  Plant response rating, Sedge, Umbrella: 20
[7]; 500 g ai/ha
  Plant response rating, Sedge, Umbrella: 25

From patent US8802597B2, “Herbicidal pyrimidines” (E I du Pont de Nemours and Company, priority 2003, dated 2014)
